Reference: patent US20110092544A1, “FUNGICIDAL PYRIDINES” (E.I. DU PONT DE nemours and company, priority 2008, published 2011)

Legend:
Assay type in all cases: in vivo
Botrytis cinerea = experiment: Test F: tomato botrytis, preventive spray on tomato seedlings, visual disease rating
Source text: (§1) General protocol for preparing test suspensions for Tests A-H: The test compounds were first dissolved in acetone in an amount equal to 3% of the final volume and then suspended at the desired concentration (in ppm) in acetone and purified water (50/50 mix) containing 250 ppm of the surfactant Trem® 014 (polyhydric alcohol esters). The resulting test suspensions were then used in tests A-H. Spraying a 200 ppm test suspension to the point of run-off on the test plants was the equivalent of a rate of 500 g/ha.
The test suspension was sprayed to the point of run-off on tomato seedlings. The following day the seedlings were inoculated with a spore suspension of Botrytis cinerea (the causal agent of tomato botrytis) and incubated in saturated atmosphere at 20° C. for 48 h, and then moved to a growth chamber at 24° C. for 3 additional days, after which time disease ratings were visually made.
(§2) Results for Tests A-H are given in Table A. In the table, a rating of 100 indicates 100% disease control and a rating of 0 indicates no disease control (relative to the controls). A dash (-) indicates no test results. All results are for compounds tested at 200 ppm except where the compound number is followed by “*” which indicates the compound was tested at 40 ppm.

Septoria nodorum = experiment: Test D: wheat glume blotch, preventive spray on wheat seedlings, visual disease rating
Source text: as §1
The test suspension was sprayed to the point of run-off on wheat seedlings. The following day the seedlings were inoculated with a spore suspension of Septoria nodorum (the causal agent of wheat glume blotch) and incubated in a saturated atmosphere at 20° C. for 48 h, and then moved to a growth chamber at 20° C. for 7 days, after which time disease ratings were visually made.
as §2

[1] = test system: Puccinia recondite f. sp. tritici; experiment: Test B: wheat leaf rust, preventive spray on wheat seedlings, visual disease rating
Source text: as §1
The test suspension was sprayed to the point of run-off on wheat seedlings. The following day the seedlings were inoculated with a spore suspension of Puccinia recondite f. sp. tritici (the causal agent of wheat leaf rust) and incubated in a saturated atmosphere at 20° C. for 24 h, and then moved to a growth chamber at 20° C. for 7 days, after which time disease ratings were visually made.
as §2

Alternaria solani = experiment: Test E: tomato early blight, preventive spray on tomato seedlings, visual disease rating
Source text: as §1
The test suspension was sprayed to the point of run-off on tomato seedlings. The following day the seedlings were inoculated with a spore suspension of Alternaria solani (the causal agent of tomato early blight) and incubated in a saturated atmosphere at 27° C. for 48 h, and then moved to a growth chamber at 20° C. for 5 days, after which time disease ratings were visually made.
as §2

[2] = test system: Erysiphe graminis f. sp. tritici; experiment: Test A: wheat powdery mildew, preventive spray on wheat seedlings, visual disease rating
Source text: as §1
The test suspension was sprayed to the point of run-off on wheat seedlings. The following day the seedlings were inoculated with a spore dust of Erysiphe graminis f. sp. tritici (the causal agent of wheat powdery mildew) and incubated in a growth chamber at 20° C. for 8 days, after which time disease ratings were visually made.
as §2

Septoria tritici = experiment: Test C: wheat leaf blotch, preventive spray on wheat seedlings, visual disease rating
Source text: as §1
The test suspension was sprayed to the point of run-off on wheat seedlings. The following day the seedlings were inoculated with a spore suspension of Septoria tritici (the causal agent of wheat leaf blotch) and incubated in a saturated atmosphere at 20° C. for 48 h, and moved to a growth chamber at 20° C. for 19 additional days, after which time disease ratings were visually made.
as §2

[3] = 200 ppm, 100 = 100% disease control, 0 = no control
[4] = 40 ppm (compound number followed by *)

## COc1cc(OC)cc(-c2c(-c3ccc(F)cc3)cnc(C)c2-c2ccccc2F)c1 [Compound 94]
Botrytis cinerea; [3]
  Test F rating (% disease control): 98%
Septoria nodorum; [3]
  Test D rating (% disease control): 0%
[1]; [3]
  Test B rating (% disease control): 54%
Alternaria solani; [3]
  Test E rating (% disease control): 0%
[2]; [3]
  Test A rating (% disease control): 21%
Septoria tritici; [3]
  Test C rating (% disease control): 91%

## COc1cc(OC)cc(-c2c(-c3ccc(F)cc3)cnc(C)c2-c2ccc(F)cc2F)c1 [Compound 95]
Botrytis cinerea; [3]
  Test F rating (% disease control): 87%
Septoria nodorum; [3]
  Test D rating (% disease control): 0%
[1]; [3]
  Test B rating (% disease control): 99%
Alternaria solani; [3]
  Test E rating (% disease control): 73%
[2]; [3]
  Test A rating (% disease control): 93%
Septoria tritici; [3]
  Test C rating (% disease control): 96%

## COc1cc(OC)cc(-c2c(CO)cnc(C)c2-c2c(F)cc(F)cc2F)c1 [Compound 96, 4-(3,5-dimethoxyphenyl)-6-methyl-5-(2,4,6-trifluorophenyl)-3-pyridinemethanol]
Botrytis cinerea; Botrytis cinerea, 120 h, 200 ppm, 100 = 100% disease control, 0 = no control
  pest or weed control at 200 ppm: 98%
Septoria nodorum; Parastagonospora nodorum, 216 h, 200 ppm, 100 = 100% disease control, 0 = no control
  pest or weed control at 200 ppm: 0%
[1]; 192 h, 200 ppm, 100 = 100% disease control, 0 = no control
  pest or weed control at 200 ppm: 96%
Alternaria solani; Alternaria solani, 168 h, 200 ppm, 100 = 100% disease control, 0 = no control
  pest or weed control at 200 ppm: 99%
[2]; Blumeria graminis, 192 h, 200 ppm, 100 = 100% disease control, 0 = no control
  pest or weed control at 200 ppm: 98%
Septoria tritici; Zymoseptoria tritici, 504 h, 200 ppm, 100 = 100% disease control, 0 = no control
  pest or weed control at 200 ppm: 94%

## COc1cc(OC)cc(-c2c(Cn3cccn3)cnc(C)c2-c2c(F)cc(F)cc2F)c1 [Compound 97]
Botrytis cinerea; [3]
  Test F rating (% disease control): 99%
Septoria nodorum; [3]
  Test D rating (% disease control): 100%
[1]; [3]
  Test B rating (% disease control): 100%
Alternaria solani; [3]
  Test E rating (% disease control): 100%
[2]; [3]
  Test A rating (% disease control): 100%
Septoria tritici; [3]
  Test C rating (% disease control): 95%

## CCC(O)(CC)c1cnc(C)c(-c2c(F)cc(F)cc2F)c1-c1cc(OC)cc(OC)c1 [Compound 98]
Botrytis cinerea; [3]
  Test F rating (% disease control): 93%
Septoria nodorum; [3]
  Test D rating (% disease control): 0%
[1]; [3]
  Test B rating (% disease control): 92%
Alternaria solani; [3]
  Test E rating (% disease control): 9%
[2]; [3]
  Test A rating (% disease control): 86%
Septoria tritici; [3]
  Test C rating (% disease control): 92%

## CCC(O)c1cnc(C)c(-c2c(F)cc(F)cc2F)c1-c1cc(OC)cc(OC)c1 (stereo not drawn) [Compound 99]
Botrytis cinerea; [3]
  Test F rating (% disease control): 98%
Septoria nodorum; [3]
  Test D rating (% disease control): 100%
[1]; [3]
  Test B rating (% disease control): 100%
Alternaria solani; [3]
  Test E rating (% disease control): 100%
[2]; [3]
  Test A rating (% disease control): 100%
Septoria tritici; [3]
  Test C rating (% disease control): 94%

## Cc1ncc(-c2ccccc2F)c(-c2cc(O)cc(O)c2)c1-c1ccc(F)cc1 [Compound 100]
Botrytis cinerea; [3]
  Test F rating (% disease control): 100%
Septoria nodorum; [3]
  Test D rating (% disease control): 0%
[1]; [3]
  Test B rating (% disease control): 89%
Alternaria solani; [3]
  Test E rating (% disease control): 0%
[2]; [3]
  Test A rating (% disease control): 76%
Septoria tritici; [3]
  Test C rating (% disease control): 76%

## Cc1ncc(-c2ccccc2F)c(-c2cc(OC(F)F)cc(OC(F)F)c2)c1-c1ccc(F)cc1 [Compound 101]
Botrytis cinerea; [3]
  Test F rating (% disease control): 96%
Septoria nodorum; [3]
  Test D rating (% disease control): 0%
[1]; [3]
  Test B rating (% disease control): 89%
Alternaria solani; [3]
  Test E rating (% disease control): 0%
[2]; [3]
  Test A rating (% disease control): 82%
Septoria tritici; [3]
  Test C rating (% disease control): 96%

## COc1cc(OC)cc(-c2c(C(C)(C)OC(C)=O)cnc(C)c2-c2c(F)cc(F)cc2F)c1 [Compound 102]
Botrytis cinerea; [3]
  Test F rating (% disease control): 98%
Septoria nodorum; [3]
  Test D rating (% disease control): 0%
[1]; [3]
  Test B rating (% disease control): 92%
Alternaria solani; [3]
  Test E rating (% disease control): 91%
[2]; [3]
  Test A rating (% disease control): 98%
Septoria tritici; [3]
  Test C rating (% disease control): 97%

## COc1cc(OC)cc(-c2c(C(O)C(C)C)cnc(C)c2-c2c(F)cc(F)cc2F)c1 (stereo not drawn) [Compound 103]
Botrytis cinerea; [3]
  Test F rating (% disease control): 99%
Septoria nodorum; [3]
  Test D rating (% disease control): 98%
[1]; [3]
  Test B rating (% disease control): 100%
Alternaria solani; [3]
  Test E rating (% disease control): 100%
[2]; [3]
  Test A rating (% disease control): 100%
Septoria tritici; [3]
  Test C rating (% disease control): 95%

## COc1cc(OC)cc(-c2c(Cn3cncn3)cnc(C)c2-c2c(F)cc(F)cc2F)c1 [Compound 104]
Botrytis cinerea; [3]
  Test F rating (% disease control): 99%
Septoria nodorum; [3]
  Test D rating (% disease control): 99%
[1]; [3]
  Test B rating (% disease control): 100%
Alternaria solani; [3]
  Test E rating (% disease control): 100%
[2]; [3]
  Test A rating (% disease control): 100%
Septoria tritici; [3]
  Test C rating (% disease control): 98%

## COc1cc(OC)cc(-c2c(C(C)=O)cnc(C)c2-c2c(F)ccc(OC)c2F)c1 [Compound 105]
Botrytis cinerea; [3]
  Test F rating (% disease control): 98%
Septoria nodorum; [3]
  Test D rating (% disease control): 0%
[1]; [3]
  Test B rating (% disease control): 99%
Alternaria solani; [3]
  Test E rating (% disease control): 0%
[2]; [3]
  Test A rating (% disease control): 100%
Septoria tritici; [3]
  Test C rating (% disease control): 93%

## COc1cc(OC)cc(-c2c(C(C)(C)O)cnc(C)c2-c2c(F)ccc(OC)c2F)c1 [Compound 106]
Botrytis cinerea; [3]
  Test F rating (% disease control): 98%
Septoria nodorum; [3]
  Test D rating (% disease control): 0%
[1]; [3]
  Test B rating (% disease control): 100%
Alternaria solani; [3]
  Test E rating (% disease control): 99%
[2]; [3]
  Test A rating (% disease control): 96%
Septoria tritici; [3]
  Test C rating (% disease control): 98%

## COc1cc(OC)cc(-c2c(C(C)O)cnc(C)c2-c2c(F)cc(F)cc2F)c1 (stereo not drawn) [Compound 107]
Botrytis cinerea; [3]
  Test F rating (% disease control): 99%
Septoria nodorum; [3]
  Test D rating (% disease control): 98%
[1]; [3]
  Test B rating (% disease control): 100%
Alternaria solani; [3]
  Test E rating (% disease control): 100%
[2]; [3]
  Test A rating (% disease control): 100%
Septoria tritici; [3]
  Test C rating (% disease control): 98%

## COc1cc(OC)cc(-c2c(Cn3ccc(C(F)(F)F)n3)cnc(C)c2-c2c(F)cc(F)cc2F)c1 [Compound 108]
Botrytis cinerea; [3]
  Test F rating (% disease control): 87%
Septoria nodorum; [3]
  Test D rating (% disease control): 0%
[1]; [3]
  Test B rating (% disease control): 85%
Alternaria solani; [3]
  Test E rating (% disease control): 0%
[2]; [3]
  Test A rating (% disease control): 64%
Septoria tritici; [3]
  Test C rating (% disease control): 71%

## COc1cc(OC)cc(-c2c(COc3ccccc3)cnc(C)c2-c2c(F)cc(F)cc2F)c1 [Compound 109]
Botrytis cinerea; [3]
  Test F rating (% disease control): 92%
Septoria nodorum; [3]
  Test D rating (% disease control): 0%
[1]; [3]
  Test B rating (% disease control): 97%
Alternaria solani; [3]
  Test E rating (% disease control): 0%
[2]; [3]
  Test A rating (% disease control): 98%
Septoria tritici; [3]
  Test C rating (% disease control): 97%

## COc1cc(OC)cc(-c2c(CN3CCCCC3)cnc(C)c2-c2c(F)cc(F)cc2F)c1 [Compound 111]
Botrytis cinerea; [3]
  Test F rating (% disease control): 99%
Septoria nodorum; [3]
  Test D rating (% disease control): 0%
[1]; [3]
  Test B rating (% disease control): 97%
Alternaria solani; [3]
  Test E rating (% disease control): 0%
[2]; [3]
  Test A rating (% disease control): 93%
Septoria tritici; [3]
  Test C rating (% disease control): 91%

## COc1cc(OC)cc(-c2c(C=O)cnc(C)c2-c2c(F)cc(F)cc2F)c1 [Compound 112]
Botrytis cinerea; [4]
  Test F rating (% disease control): 96%
Septoria nodorum; [4]
  Test D rating (% disease control): 0%
[1]; [4]
  Test B rating (% disease control): 80%
Alternaria solani; [4]
  Test E rating (% disease control): 9%
[2]; [4]
  Test A rating (% disease control): 96%
Septoria tritici; [4]
  Test C rating (% disease control): 93%
